Measurements reported in patent US4780476A, “Azoniaspironortropanol esters as asthma therapeutics and broncholytics” (Madaus GmbH & Co., priority 1985, dated 1988).
Entries after “also recorded” stand apart in the source; their conditions may differ. Structures can show the parent of a compound that is named as a salt.

Assays:
[1] = test system: awake guinea pig (cholinergically-induced bronchial cramps); assay: inhalative provocation with acetyl-β-methylcholine chloride aerosol on awake guinea pigs (broncholytic/protective action); type: in vivo; details: for EC50: Cavia porcellus, read-out: EC50, average effective concentration w of acetyl-β-methylcholine chloride (provocation substance) after pre-treatment; for probit analysis reaction % observed: animals reacting with dyspnoea; for probit analysis reaction % calculated: probit regression
Experimental: animal strain: Pirbright white test substance: trospium chloride (MP 194) (M.W. 428) dosage: 3×10^-7 mole ml^-1 kg^-1 mode of administration: intraperitoneally test substance: dehydrotrospium chloride (WG 71) (M.W. 426) […]
reference substance: atropine hydrochloride (Serva; M.W. 325.8) […]
reference substance: isoproterenol (Fluka; M.W. 247.72) dosage: […]
further substances: acetyl-β-methylcholine chloride (Sigma; M.W. 195.7) mode of administration: 0.5 ml. min^-1 by inhalation.
The guinea pigs intended for an experiment are, after an acclimatization time of at least 8 days, subjected twice to an aerosol of 0.1% acetyl-β-methylcholine chloride solution since, as is known from experience, during the first two inhalative provocations, the animals react with more distinct respiratory disturbances than in the case of the subsequent provocations (adaptation). If, in the case of the two inhalation phases, a nonsensitivity (absence of respiratory disturbances) is observed towards the exposure, these animals are excluded from the actual experiment.
For the purpose of aerosol provocation, the guinea pigs are placed individually in an inhalation chamber (see Section 3.6 hereinafter) in which 0.5 ml. of solution per minute are atomized as droplet aerosol by means of a special nozzle (Rhema, Hofheim, Germany). […] With the help of a stopwatch, there is recorded the time from the commencement of inhalation to the appearance of the asphyctic state; the animals are immediately removed from the inhalation chamber and, as a rule, recover in a very short period of time (recovery of consciousness and normalization of breathing). If, within 180 seconds, no dysponea occurs, the inhalation is discontinued.
One aerosol concentration is tested per test day; the time between the individual aerosol provocations is at least 1 week.
The inhalation chamber is a Plexiglass container specially made for this purpose, the lid of which can be closed in an air-tight manner by means of rubber sealing and grip closure means. The internal measurements of the chamber are 285×190×180 mm., which corresponds to a volume of about 9.75 liters. The special nozzle (Rhema, Hofheim, Germany, order No. 504104) is fixed to a recess on the lid and ensures a uniform supply of the available chamber space with the aerosol. The provocation solution is supplied to the nozzle via an infusion pump (Braun, Melsungen, Germany) (0.5 ml./minute) and there atomized with a superpressure of 180 kPa from an attached pressure gas bottle (artificial air, KW-free). For reasons of safety, the aerosol provocation is carried out under a ventilator.
The EC50, as well as the related confidence interval (p>95%), are determined from the probit regression lines of the percentage values (v. supra) provided with weight coefficients after line adaptation by the "maximum likelihood" method (10 iterations). Furthermore, there is examined the adaptation of the lines to the observed data by means of the chiquadrat test. For the evaluation, a calculation programme is commercially available (Olivetti).

[2] = biological target: T1, isolated tracheal spirals of the guinea pig (Cavia porcellus, UniProt H0W1Z3); assay: anticholinergic effectiveness on isolated tracheal spirals (antagonism against acetyl-β-methylcholine chloride); details: for antagonism against acetyl-β-methylcholine chloride / anticholinergic effectiveness (in words): isolated guinea pig tracheal spirals
T1 construct: the whole of the trachea is roughly freed beginning from the larynx up to the tracheal bifurcation, removed and transferred; from tissue; host or cells: isolated trachea (spiral strips) of male Pirbright white guinea pigs
From the text: A model for this is the measurement of the anticholinergic effectiveness on isolated tracheal spirals of the guinea pig.
The test substance used was 3α-benziloyloxynortropane-8-spiro-1'-pyrrolidinium chloride (trospium chloride; MP 194), ipratropium bromide being used as comparison substance.
There is to be determined the anticholinergic effectiveness of MP 194 in comparison with the reference substance ipratropium bromide on the isolated tracheal spirals of the guinea pig.
3.1.1. animal species: guinea pig
3.1.2. animal strain: Pirbright white
3.3.1. test substance (test antagonist) trospium chloride (MP 194) (M.W. 428)
3.3.2. reference substance (reference antagonist) ipratropium bromide (Atrovent) (M.W. 412.4)
3.3.3.1. acetyl-β-methylcholine chloride (Sigma) (M.W. 195.7)
The guinea pig is stunned by a blow on the neck. Subsequently, the whole of the trachea is roughly freed beginning from the larynx up to the tracheal bifurcation, removed and transferred to tempered (37° C.) and carbogenized tyrode solution. After surrounding connective tissue has been removed as far as possible, the preparation is cut up spirally by means of fine scissors at an angle of about 45° and separated into two equal sized sections. After weighing, both preparations are provided proximally and distally with a silk thread. One thread serves for fixing the preparation by means of a loop to the bottom of the bath and the other is connected via a hook with the transducer above the bath vessel.
Subsequently, the preparations, corresponding to the calibration, are prestressed with about 80 mN and equilibrated from 50-100 minutes. During the equilibration phase, the nutrient solution in the bath vessels is renewed in 15 minute intervals. As soon as the resting muscle tonus of the preparation has stabilized, there takes place the cumulative addition of the agonist, whereby the addition of the next highest concentration first takes place when no further increase of contraction is recognisable (plateau). When the maximum contraction height of the preparation is achieved, the cumulative agonist addition is ended and the preparation is rinsed. After a further equilibration phase (v. supra), the cumulative addition of the agonist is repeated but this time in the presence of the test or reference antagonist.
3.6.1. The perfusion part consists of an L-shaped organ bath in the hollow space of which (longer limb) runs a double glass spiral through which the nutrient solution is passed into the actual bath vessel (28 ml. content; shorter limb). This bath vessel is divided into two chambers which are, however, connected together by two transverse connections. […] The inlet chambers as well as the feeding glass spirals are tempered from the outside to 37° C. by a separate liquid circulation. This tempering takes place with the help of a "Colora" ultra-thermostat type K (Colora Messtechnik GmbH, Dusseldorf, Germany) which serves as thermostat and pump. In order, in case of need, always to have available ready-for-use nutrient solution, above the organ bath is provided a double-walled storage container in which the nutrient solution is also tempered and carbogenised. This is connected via a glass stopcock and a polypropylene tube with double glass spiral in the interior of the organ bath.
3.6.2. The measurement and recording part includes a transducer (Statham-Universal-Zelle UC-2; Hugo Sachs Elektronic KG, Hugstetten, Germany). By means of a hanging-in weight, a force of 40 mN is produced on the transducer which passes as electrical signal via a connecting cable to a bridge amplifier. The amplification is smoothly so regulated that the force provided corresponds to a constant value on the scale or an analogous value on the millimeter paper of the recorder (dependent upon the amplification; see below). After fixing the organ, the preparation is prestressed to the doubled mark, corresponding to 80 mN. […]

[3] = pre-treatment 3×10^-7 mol ml^-1 kg^-1 i.p., 15 min before inhalation, w of acetyl-β-methylcholine chloride in atomised solution, control animals w=0.000539, higher = more protection
[4] = acetyl-β-methylcholine chloride w=0.000562, 10 tested, pre-treatment 3×10^-7 mol ml^-1 kg^-1 i.p.
[5] = acetyl-β-methylcholine chloride w=0.000562, pre-treatment 3×10^-7 mol ml^-1 kg^-1 i.p.
[6] = acetyl-β-methylcholine chloride w=0.001000, 10 tested (isoproterenol 9), pre-treatment 3×10^-7 mol ml^-1 kg^-1 i.p.
[7] = acetyl-β-methylcholine chloride w=0.001000, pre-treatment 3×10^-7 mol ml^-1 kg^-1 i.p.
[8] = acetyl-β-methylcholine chloride w=0.001780, pre-treatment 3×10^-7 mol ml^-1 kg^-1 i.p.
[9] = acetyl-β-methylcholine chloride w=0.001780, trospium chloride 10 tested, dehydrotrospium chloride 9, atropine 9, isoproterenol 8, pre-treatment 3×10^-7 mol ml^-1 kg^-1 i.p.
[10] = acetyl-β-methylcholine chloride w=0.003160, 10 tested (isoproterenol 9), pre-treatment 3×10^-7 mol ml^-1 kg^-1 i.p.
[11] = acetyl-β-methylcholine chloride w=0.003160, pre-treatment 3×10^-7 mol ml^-1 kg^-1 i.p.
[12] = acetyl-β-methylcholine chloride w=0.005620, 10 tested (isoproterenol 9), pre-treatment 3×10^-7 mol ml^-1 kg^-1 i.p.
[13] = acetyl-β-methylcholine chloride w=0.005620, pre-treatment 3×10^-7 mol ml^-1 kg^-1 i.p.

T1 sequence (H0W1Z3 1-590): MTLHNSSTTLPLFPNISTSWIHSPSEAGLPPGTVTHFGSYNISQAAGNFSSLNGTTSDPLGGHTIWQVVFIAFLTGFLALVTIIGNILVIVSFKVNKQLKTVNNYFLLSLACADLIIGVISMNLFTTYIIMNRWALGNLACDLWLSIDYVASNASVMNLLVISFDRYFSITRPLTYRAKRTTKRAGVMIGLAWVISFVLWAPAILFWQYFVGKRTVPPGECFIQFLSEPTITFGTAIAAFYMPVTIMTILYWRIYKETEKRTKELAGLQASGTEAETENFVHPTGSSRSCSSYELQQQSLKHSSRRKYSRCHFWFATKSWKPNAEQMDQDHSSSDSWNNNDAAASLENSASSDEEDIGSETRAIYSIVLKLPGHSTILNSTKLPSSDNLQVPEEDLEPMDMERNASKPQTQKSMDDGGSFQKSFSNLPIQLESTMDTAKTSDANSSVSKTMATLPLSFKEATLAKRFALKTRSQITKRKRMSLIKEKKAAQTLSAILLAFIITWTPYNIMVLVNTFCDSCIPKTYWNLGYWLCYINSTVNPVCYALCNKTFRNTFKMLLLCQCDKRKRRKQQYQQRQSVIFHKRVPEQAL

SMILES	EC50 [1, 3] [µg/mL]	number of animals reacting [1, 4]	probit analysis reaction % calculated [1, 5] [%]	number of animals reacting [1, 6]	probit analysis reaction % observed [1, 7] [%]	probit analysis reaction % calculated [1, 7] [%]	probit analysis reaction % observed [1, 8] [%]	probit analysis reaction % calculated [1, 8] [%]	number of animals reacting [1, 9]	number of animals reacting [1, 10]	probit analysis reaction % observed [1, 11] [%]	probit analysis reaction % calculated [1, 11] [%]	number of animals reacting [1, 12]	probit analysis reaction % observed [1, 13] [%]	probit analysis reaction % calculated [1, 13] [%]	also measured
CN1[C@@H]2CC[C@H]1C[C@@H](OC(=O)C(CO)c1ccccc1)C2 (stereo partly shown) [atropine chloride, atropine hydrochloride, reference compound]	1380	3	38.93	6	60.00	45.98	55.56	53.16	5	5	50.00	60.20	7	70.00	66.95	probit analysis reaction % observed [1, 5]: 30.00%; EC50, average effective concentration w of acetyl-β-methylcholine chloride (provocation substance) after pre-treatment [1, 3]: 0.00138; antagonism against acetyl-β-methylcholine chloride / anticholinergic effectiveness (in words) [2]: dosage dependent antagonism
O=C(O[C@H]1C[C@H]2CC[C@@H](C1)[N+]21CCCC1)C(O)(c1ccccc1)c1ccccc1 [trospium chloride, 3α-benziloyloxynortropane-8-spiro-1'-pyrrolidinium chloride]	2860	0	5.46	1	10.00	15.03	50.00	32.00	5	5	50.00	53.87	7	70.00	74.66	broncholytic effectiveness compared with atropine and isoproterenol (in words) ([1]; 15 min after i.p. administration, equimolar dosages): comparable with or superior to the well known parasympatholytics atropine and the β-sympathomimetic isoproterenol; also recorded: greater effectiveness of the test substances, especially of trospium chloride, in comparison with the reference substances; probit analysis reaction % observed, correction according to Bliss ([1]; guinea pig, in vivo): 2.50; broncholytic effect (in words) ([1]; intraperitoneal, cholinergically-induced bronchial cramps, awake guinea pig): outstanding broncholytic effect; Kb ([2]; antagonism against acetyl-β-methylcholine chloride, read-out: pA2 ± s (converted)): 0.55 nM; quality of the antagonism (in words) ([2]; comparison of maximum effects in absence and presence of the antagonist, listed as MP 194): competitively antagonistically effective; also recorded: competitive antagonism; strength of activity compared with ipratropium bromide (in words) ([2]; comparison of pA2 values, t-test, listed as MP 194): equivalent to the reference substance ipratropium bromide; also recorded: does not differ significantly; also recorded: equal to the reference substance ipratropium bromide; antagonism against acetyl-β-methylcholine chloride / anticholinergic effectiveness (in words) ([2]; listed as MP 194): comparable, dosage-dependent antagonism; also recorded: clear anticholinergic effectiveness
